# How the values were obtained:
# [1] = test system: human umbilical vascular endothelial cells (HUVECs); assay: tube formation assay in HUVECs; type: cell-based; conditions: 25 μM ginsenoside, 4 hours, vs DMSO negative control and VEGF-A positive control
# Experimental: (§1) The angiogenesis-promoting activities between human umbilical vascular endothelial cells (HUVECs) and human retinal microvascular endothelial cells (HRMECs) using 10 kinds of ginsenoside compounds (CK, Rh2, Rg3, Rb1, F2, Rd, Re, Rg1, Rh1, or F1). That is, HUVECs or HRMECs were cultured in an incubator (5% CO2 and 37° C.) using 2% FBS, EGM-2 (Lonza, Walkersville, Md., USA) medium. A 96-well plate was coated with Matrigel (BD Biosciences) for 1 hour. Then, HUVECs or HRMECs (10^4 cells/well, respectively), which were mixed with a 0.1% FBS-containing EBM-2 medium respectively treated with 25 μM of ginsenoside compounds (CK, Rh2, Rg3, Rb1, F2, Rd, Re, Rg1, Rh1, or F1), were seeded on the 96-well plate. After 4 hours of incubation, a tube formation assay was performed and the number of tubes formed was compared by microscopic observation and photographing (FIGS. 1a, 1b, 2a, and 2b). In particular, the cells cultured after treating with DMSO instead of ginsenoside were used as a negative control, and the cells cultured after treating with VEGF-A, which is known to promote angiogenesis, were used as a positive control.
# (§2) The HUVECs or HRMECs, which were cultured by the method of Example 1, were cultured after treating at various concentrations (12.5, 25, or 50 μM) of ginsenoside F1 or Rh1 selected from Example 1 for 4 hours, and the number of tubes formed was compared by performing a tube formation assay (FIGS. 3 and 4). In particular, the cells cultured after treating with DMSO instead of ginsenoside were used as a negative control and the cells cultured after treating with VEGF-A, which is known to promote angiogenesis, were used as a positive control.
# [2] = test system: human retinal microvascular endothelial cells (HRMECs); assay: tube formation assay in HRMECs; type: cell-based; conditions: 25 μM ginsenoside, 4 hours, vs DMSO negative control and VEGF-A positive control
# Experimental: as §1, §2
# HUVECs [3] = assay: MTT cell proliferation assay in HUVECs; type: cell-based, human; conditions: 48 hours, concentrations 0, 3.125, 6.25, 12.5, or 25 μM
# Experimental: The HUVECs or HRMECs, which were cultured by the method of Example 1, were cultured after treating at various concentrations (0, 3.125, 6.25, 12.5, or 25 μM) of three kinds of ginsenosides (F1, Rh1, or Rg1), which were confirmed to promote tube formation in Example 1, for 48 hours, and the level of cell proliferation was compared by performing the MTT assay with respect to the cultured cells (FIGS. 5 and 6). In particular, the cells cultured after treating with DMSO instead of ginsenoside were used as a negative control, and the cells cultured after treating with VEGF-A, which is known to promote angiogenesis, were used as a positive control.
# ICR mice = assay: VEGF-A-induced vascular leakage in mouse ears (Evans blue); type: in vivo; conditions: ear intradermal 10 μL, ginsenoside 1.25 μM with VEGF-A 250 μg, 30 minutes
# Experimental: Seven-week-old male ICR mice were injected with 1% Evans blue dye (200 μL) into the tail vein and allowed to react for 10 minutes to dye the blood in blue.
# Then, the mice were intradermally injected in an amount of 10 μL through the ears with PBS (negative control), VEGF-A (250 μg, positive control), ginsenoside F1 (1.25 μM), ginsenoside Rh1 (1.25 μM), VEGF-A (250 μg)/ginsenoside F1 (1.25 μM), or VEGF-A (250 μg)/ginsenoside Rh1 (1.25 μM), respectively.
# Thirty minutes thereafter, the mice were subjected to euthanasia and their ears were removed. After confirming the amount of blood leakage by the naked eye (FIG. 10A), the ears were put in formamide and fixed at 37° C. for 24 hours. Then, the effects of F1 or Rh1 on the inhibition of blood leakage were quantitatively evaluated by measuring the absorbance at 620 nm (FIG. 10B).
# HUVECs [4] = assay: vascular permeability assay, VEGF-A-treated HUVECs; type: cell-based, human; conditions: for vascular leakage induced by VEGF-A: HUVECs pretreated with 25 μM ginsenoside for 1 hour, then VEGF-A; for level of vascular leakage, pretreatment plus VEGF-A compared to ginsenoside alone: HUVECs, 25 μM ginsenoside pretreatment 1 hour then VEGF-A vs ginsenoside alone
# Experimental: The HUVECs, cultured by a method described in Example 1, were pretreated with 25 μM ginsenoside F1 or Rh1 for 1 hour selected from Example 1, treated with VEGF-A, and then subjected to a vascular permeability assay (FIG. 9). In particular, the cells cultured after treating with DMSO instead of ginsenoside were used as a negative control; the cells cultured after treating with VEGF-A, which is known to promote angiogenesis, were used as a positive control; and the cells pretreated with ginsenoside F1 or Rh1 and not treated with VEGF-A were used as a comparative group.
molecule,measurement,setting,value
CC(C)=CCC[C@](C)(O[C@@H]1O[C@H](CO)[C@@H](O)[C@H](O)[C@H]1O)[C@H]1CC[C@]2(C)[C@@H]1[C@H](O)C[C@@H]1[C@@]3(C)CC[C@H](O)C(C)(C)[C@@H]3[C@@H](O[C@@H]3O[C@H](CO)[C@@H](O)[C@H](O)[C@H]3O[C@@H]3O[C@@H](C)[C@H](O)[C@@H](O)[C@H]3O)C[C@]12C [ginsenoside Re],number of tubes formed (tube formation),[1],effect of promoting tube formation
same,number of tubes formed (tube formation),[2],effect of promoting tube formation
CC(C)=CCC[C@](C)(O[C@@H]1O[C@H](CO)[C@@H](O)[C@H](O)[C@H]1O)[C@H]1CC[C@]2(C)[C@@H]1[C@H](O)C[C@@H]1[C@@]3(C)CC[C@H](O[C@@H]4O[C@H](CO)[C@@H](O)[C@H](O)[C@H]4O[C@@H]4O[C@H](CO)[C@@H](O)[C@H](O)[C@H]4O)C(C)(C)[C@@H]3CC[C@]12C [ginsenoside Rd],number of tubes formed (tube formation),[1],effect of promoting tube formation
same,number of tubes formed (tube formation),[2],effect of promoting tube formation
CC(C)=CCC[C@](C)(O[C@@H]1O[C@H](CO)[C@@H](O)[C@H](O)[C@H]1O)[C@H]1CC[C@]2(C)[C@@H]1[C@H](O)C[C@@H]1[C@@]3(C)CC[C@H](O)C(C)(C)[C@@H]3[C@@H](O[C@@H]3O[C@H](CO)[C@@H](O)[C@H](O)[C@H]3O)C[C@]12C [ginsenoside Rg1],promotion of cell proliferation,HUVECs [3],about 60%
same,number of tubes formed (tube formation),[1],effect of promoting tube formation
same,number of tubes formed (tube formation),[2],effect of promoting tube formation
"CC(C)=CCCC(C)(O)C1CCC2(C)C1C(O)CC1C3(C)CCC(O)C(C)(C)C3C(OC3OC(CO)C(O)C(O)C3O)CC12C [ginsenoside Rh1, 6-O-β-D-glucopyranoside-20(S)-protopanaxatriol]",promotion of cell proliferation,HUVECs [3],about 100%
same,"vascular leakage symptoms induced by VEGF-A (Evans blue, absorbance at 620 nm)",ICR mice,effectively inhibit the vascular leakage symptoms induced by VEGF-A
same,number of tubes formed (tube formation),[1],effect of promoting tube formation at a higher level compared to that of the positive control
same,number of tubes formed (tube formation),[2],effect of promoting tube formation at a higher level compared to that of the positive control
same,vascular leakage induced by VEGF-A,HUVECs [4],vascular leakage was inhibited by the pretreatment
same,"level of vascular leakage, pretreatment plus VEGF-A compared to ginsenoside alone",HUVECs [4],further reduced compared to when the HUVECs were treated with ginsenoside F1 or Rh1 alone
ginsenoside Rb2,number of tubes formed (tube formation),[1],effect of inhibiting tube formation
same,number of tubes formed (tube formation),[2],effect of inhibiting tube formation
CC(C)=CCC[C@](C)(O)[C@H]1CC[C@]2(C)[C@@H]1[C@H](O)C[C@@H]1[C@@]3(C)CC[C@H](O[C@@H]4O[C@H](CO)[C@@H](O)[C@H](O)[C@H]4O[C@@H]4O[C@H](CO)[C@@H](O)[C@H](O)[C@H]4O)C(C)(C)[C@@H]3CC[C@]12C [ginsenoside Rg3],number of tubes formed (tube formation),[1],effect of inhibiting tube formation
same,number of tubes formed (tube formation),[2],effect of inhibiting tube formation
"CC(C)=CCCC(C)(OC1OC(CO)C(O)C(O)C1O)C1CCC2(C)C1C(O)CC1C3(C)CCC(O)C(C)(C)C3C(O)CC12C [ginsenoside F1, 20-O-β-D-glucopyranosyl-20(S)-protopanaxatriol]",promotion of cell proliferation,HUVECs [3],about 20%
same,"vascular leakage symptoms induced by VEGF-A (Evans blue, absorbance at 620 nm)",ICR mice,effectively inhibit the vascular leakage symptoms induced by VEGF-A
same,number of tubes formed (tube formation),[1],effect of promoting tube formation at a higher level compared to that of the positive control
same,number of tubes formed (tube formation),[2],effect of promoting tube formation at a higher level compared to that of the positive control
same,vascular leakage induced by VEGF-A,HUVECs [4],vascular leakage was inhibited by the pretreatment
same,"level of vascular leakage, pretreatment plus VEGF-A compared to ginsenoside alone",HUVECs [4],further reduced compared to when the HUVECs were treated with ginsenoside F1 or Rh1 alone
CC(C)=CCC[C@](C)(O[C@@H]1O[C@H](CO)[C@@H](O)[C@H](O)[C@H]1O)[C@H]1CC[C@]2(C)[C@@H]1[C@H](O)C[C@@H]1[C@@]3(C)CC[C@H](O)C(C)(C)[C@@H]3CC[C@]12C [ginsenoside CK],number of tubes formed (tube formation),[1],effect of inhibiting tube formation
same,number of tubes formed (tube formation),[2],effect of inhibiting tube formation
CC(C)=CCC[C@](C)(O[C@@H]1O[C@H](CO)[C@@H](O)[C@H](O)[C@H]1O)[C@H]1CC[C@]2(C)[C@@H]1[C@H](O)C[C@@H]1[C@@]3(C)CC[C@H](O[C@@H]4O[C@H](CO)[C@@H](O)[C@H](O)[C@H]4O)C(C)(C)[C@@H]3CC[C@]12C [ginsenoside F2],number of tubes formed (tube formation),[1],did not show any noticeable difference
same,number of tubes formed (tube formation),[2],effect of promoting tube formation
CC(C)=CCC[C@](C)(O[C@@H]1O[C@H](CO[C@@H]2O[C@H](CO)[C@@H](O)[C@H](O)[C@H]2O)[C@@H](O)[C@H](O)[C@H]1O)[C@H]1CC[C@]2(C)[C@@H]1[C@H](O)C[C@@H]1[C@@]3(C)CC[C@H](O[C@@H]4O[C@H](CO)[C@@H](O)[C@H](O)[C@H]4O[C@@H]4O[C@H](CO)[C@@H](O)[C@H](O)[C@H]4O)C(C)(C)[C@@H]3CC[C@]12C [ginsenoside Rb1],number of tubes formed (tube formation),[1],did not show any noticeable difference
same,number of tubes formed (tube formation),[2],effect of promoting tube formation

# Source: US10391110B2, “Composition for preventing or treating vascular leak syndrome” (INTELLIGENT SYNTHETIC BIOLOGY CENTER, priority 2015, dated 2019)
